Test results as given in patent US7968591B2, “1,3-disubstituted 4-methyl-1H-pyrrole-2-carboxamides and their use in medicaments” (Gruenenthal GmbH, priority 2006, dated 2011).

Molecular target: T1, 5-HT uptake (Rattus norvegicus, UniProt P31652)
T1 construct: from tissue; host or cells: rat brain medulla and pons, synaptosomes (P2 fraction)
Assay: 5-HT uptake inhibition in rat brain synaptosomes
Assay type: biochemical
Conditions: synaptosomes from rat medulla and pons, [3H]-5-HT
Source text: (§1) I. Method for Determining Noradrenalin and 5-HT Uptake Inhibition:
(§2) Synaptosomes from rat brain regions were freshly isolated for in vitro studies, as described in the publication “The isolation of nerve endings from brain” by E. G. Gray and V. P. Whittaker, J. Anatomy 96, pages 79-88, 1962. The corresponding literature description is hereby introduced as a reference and is deemed to be part of the disclosure.
(§3) The tissue (hypothalamus for the determination of noradrenalin uptake inhibition and medulla and pons for the determination of 5-HT uptake inhibition) was homogenized in ice-cooled 0.32 M sucrose (100 mg of tissue/1 mL) in a glass homogenizer with Teflon pestle using five complete up and down strokes at 840 revolutions/minute. The homogenate was centrifuged at 4° C. for 10 minutes at 1000 g. After subsequent centrifugation at 17000 g for 55 minutes, the synaptosomes (P2 fraction) were obtained, which were resuspended in 0.32 M glucose (0.5 mL/100 mg of original weight). The particular uptake was measured in a 96-well microtitre plate. The volume was 250 μl and incubation proceeded at room temperature (approx. 20-25° C.) under an O2 atmosphere. The incubation time was 7.5 minutes for [^3H]-NA and 5 minutes for [^3H]-5-HT. The 96 samples were then filtered through a Unifilter GF/B® microtitre plate (Packard) and washed with […] of incubated buffer using a “Brabdel MPXRI-96T Cell-Harvester”. The Unifilter GF/B plate was dried for 1 hour at 55° C. The plate was then sealed with a Back Seal® (Packard) and 35 μl of scintillation fluid were added per well (Ultima Gold®, Packard). After sealing with a top Seal® (Packard) and establishing an equilibrium (around 5 hours), radioactivity was determined in a “Trilux 1450 Microbeta” (Wallac).
(§4) A detailed description of the method may additionally be found in the literature, for example in M. Ch. Frink, H.-H. Hennies, W. Engelberger, M. Haurand and B. Wilffert (1996) Arzneim.-Forsch./Drug Res. 46 (III), 11, 1029-1036.

T1 sequence (P31652 whole entry): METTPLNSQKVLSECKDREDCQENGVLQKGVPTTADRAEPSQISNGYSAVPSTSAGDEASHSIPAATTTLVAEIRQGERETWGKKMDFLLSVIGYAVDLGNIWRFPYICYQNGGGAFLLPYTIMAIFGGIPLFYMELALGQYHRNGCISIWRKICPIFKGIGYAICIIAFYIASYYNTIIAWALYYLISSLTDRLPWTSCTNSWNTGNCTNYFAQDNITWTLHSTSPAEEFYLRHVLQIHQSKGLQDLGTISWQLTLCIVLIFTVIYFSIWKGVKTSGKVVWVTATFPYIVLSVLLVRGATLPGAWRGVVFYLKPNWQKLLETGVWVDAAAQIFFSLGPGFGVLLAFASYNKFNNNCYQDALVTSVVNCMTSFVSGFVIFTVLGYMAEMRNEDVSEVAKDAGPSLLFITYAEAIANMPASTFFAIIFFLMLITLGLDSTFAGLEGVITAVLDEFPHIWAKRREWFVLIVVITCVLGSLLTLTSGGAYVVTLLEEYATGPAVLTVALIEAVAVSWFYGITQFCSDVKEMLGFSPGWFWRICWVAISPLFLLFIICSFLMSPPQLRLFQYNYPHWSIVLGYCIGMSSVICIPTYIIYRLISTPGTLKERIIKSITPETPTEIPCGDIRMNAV

Row | SMILES | inhibition at 10 µM
1 | COc1ccc(Cn2cc(C)c(-c3ccco3)c2C(=O)NC2CCCc3ccccc32)cc1 (stereo not shown) [Example 37, 3-furan-2-yl-1-(4-methoxybenzyl)-4-methyl-1H-pyrrole-2-carboxylic acid (1,2,3,4-tetrahydro-naphthalen-1-yl)-amide] | 68%
2 | CCCCn1cc(C)c(-c2ccc(C)cc2)c1C(=O)NCCc1ccccn1 [Example 4, 1-butyl-4-methyl-3-p-tolyl-1H-pyrrole-2-carboxylic acid (2-pyridin-2-ylethyl)-amide] | 39%
3 | COc1ccc(-c2c(C)cn(C)c2C(=O)N2CCN(c3cccc(Cl)c3)CC2)cc1 [Example 70, [4-(3-chlorophenyl)-piperazin-1-yl]-[3-(4-methoxyphenyl)-1,4-dimethyl-1H-pyrrol-2-yl]-methanone] | 54%
4 | CCOc1ccc(CCNC(=O)c2c(-c3ccc(OC)cc3)c(C)cn2Cc2ccc(F)cc2)cc1 [Example 47, 1-(4-fluorobenzyl)-3-(4-methoxyphenyl)-4-methyl-1H-pyrrole-2-carboxylic acid [2-(4-ethoxyphenyl)-ethyl]-amide] | 67%
5 | CCn1cc(C)c(-c2ccc(Cl)cc2)c1C(=O)NC(C(=O)OC(C)(C)C)C(C)C (stereo not shown) [Example 36, 2-{[3-(4-chlorophenyl)-1-ethyl-4-methyl-1H-pyrrole-2-carbonyl]-amino}-3-methylbutyric acid tert.-butyl ester] | 74%
6 | COc1ccc(CNC(=O)c2c(-c3ccco3)c(C)cn2Cc2ccc(F)cc2)c(OC)c1 [Example 3, 1-(4-fluorobenzyl)-3-furan-2-yl-4-methyl-1H-pyrrole-2-carboxylic acid 2,4-dimethoxybenzylamide] | 58%
7 | Cc1ccc(-c2c(C)cn(C)c2C(=O)N2CCN(C3CCCCCC3)CC2)cc1 [Example 24, (4-cycloheptylpiperazin-1-yl)-(1,4-dimethyl-3-p-tolyl-1H-pyrrol-2-yl)-methanone] | 54%
8 | Cc1ccccc1N1CCN(C(=O)c2c(-c3ccc(Cl)cc3)c(C)cn2C)CC1 [Example 46, [3-(4-chlorophenyl)-1,4-dimethyl-1H-pyrrol-2-yl]-(4-o-tolylpiperazin-1-yl)-methanone] | 34%
9 | CCOc1ccc(Br)cc1CN1CCN(C(=O)c2c(-c3ccccc3)c(C)cn2C)CC1 [Example 41, [4-(5-bromo-2-ethoxybenzyl)-piperazin-1-yl]-(1,4-dimethyl-3-phenyl-1H-pyrrol-2-yl)-methanone] | 37%
10 | COc1ccc(Cn2cc(C)c(-c3ccc(C)cc3)c2C(=O)N(C)CC(=O)OCc2ccccc2)cc1 [Example 39, {[1-(4-methoxybenzyl)-4-methyl-3-p-tolyl-1H-pyrrole-2-carbonyl]-methylamino}-acetic acid benzyl ester] | 54%
11 | CCn1cc(C)c(-c2ccc(Cl)cc2)c1C(=O)NCc1cccc(OC)c1OC [Example 34, 3-(4-chlorophenyl)-1-ethyl-4-methyl-1H-pyrrole-2-carboxylic acid 2,3-dimethoxybenzylamide] | 37%
12 | Cc1cn(Cc2ccccc2F)c(C(=O)NCCCn2ccnc2)c1-c1ccc(Cl)cc1 [Example 58, 3-(4-chlorophenyl)-1-(2-fluorobenzyl)-4-methyl-1H-pyrrole-2-carboxylic acid (3-imidazol-1-ylpropyl)-amide] | 50%
13 | Cc1cn(C)c(C(=O)N2CCN(C3CCCCCC3)CC2)c1-c1ccco1 [Example 61, (4-cycloheptylpiperazin-1-yl)-(3-furan-2-yl-1,4-dimethyl-1H-pyrrol-2-yl)-methanone] | 52%
14 | Cc1ccc(-c2c(C)cn(Cc3c(Cl)cccc3Cl)c2C(=O)N(C)CCc2ccccn2)cc1 [Example 19, 1-(2,6-dichlorobenzyl)-4-methyl-3-p-tolyl-1H-pyrrole-2-carboxylic acid methyl-(2-pyridin-2-ylethyl)-amide] | 39%
15 | COc1cc(OC)c(CN2CCN(C(=O)c3c(-c4ccc(C)cc4)c(C)cn3C)CC2)c(OC)c1 [Example 49, (1,4-dimethyl-3-p-tolyl-1H-pyrrol-2-yl)-[4-(2,4,6-trimethoxybenzyl)-piperazin-1-yl]-methanone] | 30%
16 | Cc1cn(C)c(C(=O)N2CCN(c3ccncc3)CC2)c1-c1ccc(Cl)cc1 [Example 57, [3-(4-chlorophenyl)-1,4-dimethyl-1H-pyrrol-2-yl]-(4-pyridin-4-ylpiperazin-1-yl)-methanone] | 66%
17 | Cc1cn(Cc2ccccc2)c(C(=O)NCCc2ccc(Br)cc2)c1-c1ccco1 [Example 60, 1-benzyl-3-furan-2-yl-4-methyl-1H-pyrrole-2-carboxylic acid [2-(4-bromophenyl)-ethyl]-amide] | 67%
18 | COc1ccc(-c2c(C)cn(Cc3ccc(F)cc3)c2C(=O)NC(C)C(=O)OCc2ccccc2)cc1 (stereo not shown) [Example 29, 2-{[1-(4-fluorobenzyl)-3-(4-methoxyphenyl)-4-methyl-1H-pyrrole-2-carbonyl]-amino}-propionic acid benzyl ester] | 52%
19 | Cc1ccc(Cn2cc(C)c(-c3ccc(C)cc3)c2C(=O)N2CCN(c3ccc(C)cc3C)CC2)cc1 [Example 18, [4-(2,4-dimethylphenyl)-piperazin-1-yl]-[4-methyl-1-(4-methylbenzyl)-3-p-tolyl-1H-pyrrol-2-yl]-methanone] | 50%
20 | Cc1cn(Cc2ccc(F)cc2)c(C(=O)NCCCN(C)C)c1-c1ccco1 [Example 63, 1-(4-fluorobenzyl)-3-furan-2-yl-4-methyl-1H-pyrrole-2-carboxylic acid (3-dimethylamino-propyl)-amide] | 50%
21 | COc1ccc(OCCNC(=O)c2c(-c3ccccc3)c(C)cn2Cc2ccccc2)cc1 [Example 62, 1-benzyl-4-methyl-3-phenyl-1H-pyrrole-2-carboxylic acid [2-(4-methoxyphenoxy)-ethyl]-amide] | 73%

Molecular target: T2, NA transporter (Rattus norvegicus, UniProt Q63380)
T2 construct: from tissue; host or cells: rat brain hypothalamus, synaptosomes (P2 fraction)
T2 sequence (Q63380 1-617): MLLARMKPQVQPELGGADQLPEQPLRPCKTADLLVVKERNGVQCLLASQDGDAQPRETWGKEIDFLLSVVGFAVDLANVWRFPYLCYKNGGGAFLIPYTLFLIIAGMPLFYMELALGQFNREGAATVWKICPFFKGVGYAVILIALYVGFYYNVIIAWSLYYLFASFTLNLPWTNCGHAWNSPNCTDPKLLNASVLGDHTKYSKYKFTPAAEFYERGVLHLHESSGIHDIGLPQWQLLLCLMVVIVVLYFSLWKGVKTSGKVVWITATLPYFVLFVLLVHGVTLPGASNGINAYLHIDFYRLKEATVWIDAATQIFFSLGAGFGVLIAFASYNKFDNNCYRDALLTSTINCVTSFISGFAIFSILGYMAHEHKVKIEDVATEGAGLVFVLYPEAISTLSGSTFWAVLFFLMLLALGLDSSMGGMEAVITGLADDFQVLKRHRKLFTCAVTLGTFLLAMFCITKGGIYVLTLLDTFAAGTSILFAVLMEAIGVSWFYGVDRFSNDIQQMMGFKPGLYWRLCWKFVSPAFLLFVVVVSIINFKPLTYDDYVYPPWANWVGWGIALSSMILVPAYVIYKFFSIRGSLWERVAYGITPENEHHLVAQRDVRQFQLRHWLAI
Assay: Noradrenalin uptake inhibition in rat brain synaptosomes
Assay type: biochemical
Conditions: synaptosomes from rat hypothalamus, [3H]-NA
Source text: as §1, §2, §3, §4

Row | SMILES | inhibition at 10 µM
22 | COc1ccc(-c2c(C)cn(C)c2C(=O)N2CCN(c3cccc(Cl)c3)CC2)cc1 [Example 70, [4-(3-chlorophenyl)-piperazin-1-yl]-[3-(4-methoxyphenyl)-1,4-dimethyl-1H-pyrrol-2-yl]-methanone] | 69%
23 | Cc1cn(Cc2ccccc2)c(C(=O)NCc2ccccn2)c1-c1ccccc1 [Example 26, 1-benzyl-4-methyl-3-phenyl-1H-pyrrole-2-carboxylic acid (pyridin-2-ylmethyl)-amide] | 33%
24 | Cc1cn(CC(C)C)c(C(=O)NCc2ccc(N(C)C)cc2)c1-c1ccc(Cl)cc1 [Example 32, 3-(4-chlorophenyl)-1-isobutyl-4-methyl-1H-pyrrole-2-carboxylic acid 4-dimethylaminobenzylamide] | 35%
25 | Cc1ccc(-c2c(C)cn(C)c2C(=O)N2CCN(C3CCCCCC3)CC2)cc1 [Example 24, (4-cycloheptylpiperazin-1-yl)-(1,4-dimethyl-3-p-tolyl-1H-pyrrol-2-yl)-methanone] | 33%
26 | CCN(CC)CCCNC(=O)c1c(-c2ccc(Cl)cc2)c(C)cn1CC(C)C [Example 65, 3-(4-chlorophenyl)-1-isobutyl-4-methyl-1H-pyrrole-2-carboxylic acid (3-diethylamino-propyl)-amide] | 35%
27 | Cc1ccccc1N1CCN(C(=O)c2c(-c3ccc(Cl)cc3)c(C)cn2C)CC1 [Example 46, [3-(4-chlorophenyl)-1,4-dimethyl-1H-pyrrol-2-yl]-(4-o-tolylpiperazin-1-yl)-methanone] | 63%
28 | COc1ccc(-c2c(C)cn(Cc3ccc(F)cc3)c2C(=O)NCCc2cccs2)cc1 [Example 35, 1-(4-fluorobenzyl)-3-(4-methoxyphenyl)-4-methyl-1H-pyrrole-2-carboxylic acid (2-thiophen-2-ylethyl)-amide] | 37%
29 | Cc1cn(C)c(C(=O)N2CCN(C3CCCCCC3)CC2)c1-c1ccco1 [Example 61, (4-cycloheptylpiperazin-1-yl)-(3-furan-2-yl-1,4-dimethyl-1H-pyrrol-2-yl)-methanone] | 34%
30 | Cc1cn(C)c(C(=O)NCCCN2CCCCC2C)c1-c1ccc(Cl)cc1 (stereo not shown) [Example 78, 3-(4-chlorophenyl)-1,4-dimethyl-1H-pyrrole-2-carboxylic acid [3-(2-methylpiperidin-1-yl)-propyl]-amide] | 32%
31 | Cc1cn(Cc2ccccc2)c(C(=O)NC(C)c2ccc3ccccc3c2)c1-c1ccco1 (stereo not shown) [Example 81, 1-benzyl-3-furan-2-yl-4-methyl-1H-pyrrole-2-carboxylic acid (1-naphthalen-2-ylethyl)-amide] | 57%
32 | Cc1cn(Cc2ccccc2)c(C(=O)N2CCN(c3ccccc3Cl)CC2)c1-c1ccc(Cl)cc1 [Example 8, [1-benzyl-3-(4-chlorophenyl)-4-methyl-1H-pyrrol-2-yl]-[4-(2-chlorophenyl)-piperazin-1-yl]-methanone] | 70%
33 | Cc1cn(Cc2ccc(F)cc2)c(C(=O)NCCCN(C)C)c1-c1ccco1 [Example 63, 1-(4-fluorobenzyl)-3-furan-2-yl-4-methyl-1H-pyrrole-2-carboxylic acid (3-dimethylamino-propyl)-amide] | 57%
34 | Cc1cn(C)c(C(=O)NCc2ccc(F)cc2C(F)(F)F)c1-c1ccco1 [Example 80, 3-furan-2-yl-1,4-dimethyl-1H-pyrrole-2-carboxylic acid 4-fluoro-2-trifluoromethylbenzylamide] | 30%
